Assay results from publication PMC7822874, “Chemoprotective antimalarials identified through quantitative high-throughput screening of Plasmodium blood and liver stage parasites” (Scientific Reports, 2021).
Where “and” joins values, the source holds several entries; their conditions need not be identical. Equal entries are not always repeated.

Key:
[1] = test system: T1, Plasmodium falciparum Dd2-attB (parental line), asexual blood stages; assay: microbe, parasite or virus in culture; set-up: replicate k of 3 (each line is one of three independent assays; the three lines of one compound and parasite line follow each other); settings: n = 1; for Individual replicates / Log AC50 (M): 72 h; for AC50: Plasmodium falciparum, DD2, 72 h, read-out: Individual replicates / Log AC50 (converted)
T1 construct: Dd2-attB, the isogenic parental line
Summary of the method: (§1)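 Both lines were tested side by side with selected compounds, repeated in three independent assays. Differences between parental and ScDHODH-expressing parasites were then assessed with a two-sided Student's t-test.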

[2] = test system: T2, Plasmodium falciparum Dd2-attB-ScDHODH (transgenic line expressing yeast DHODH), asexual blood stages; assay: organism not typed; set-up: replicate k of 3 (each line is one of three independent assays; the three lines of one compound and parasite line follow each other)
T2 construct: Dd2-attB-ScDHODH, the transgenic line that expresses yeast DHODH
Summary of the method: as §1

[3] = 72 h; n = 1; read-out: Individual replicates / Log AC50 (converted)

SMILES	Individual replicates / Log AC50 (M) [1]	AC50 [1] [µM]	Individual replicates / Log AC50 (M) ([2]; 72 h, n = 1)	AC50 [2, 3] [µM]	Individual replicates / Log AC50 (M) ([2]; 72 h; n = 1)
COC(=O)c1ccc(O)c2ncc(N3CC[C@@H](N)C3)cc12 [NCGC00241044-01]	-4.8986 Log AC50 (M) and -5.0486 Log AC50 (M)	7.1	-5.1986 Log AC50 (M) and -5.0986 Log AC50 (M)	11.3	
O=[S+]([O-])(Nc1ccc(O)c2ncccc12)c1ccccc1F [NCGC00184887-01]	-5.0986 Log AC50 (M) and -5.1486 Log AC50 (M)	14.2		14.2	
CN1CCN(C2CCN(Cc3ccc(O)c4ncccc34)CC2)CC1 [NCGC00183373-01]		17.8		15.9	
Cc1ccc(C(CCN2CCCCC2)c2cc3cccc(C(N)=O)c3[nH]2)cc1 (centres unmarked) [NCGC00389183-01]	-5.2486 Log AC50 (M)	5.03	-5.3486 Log AC50 (M) and -5.0986 Log AC50 (M)	5.03	
CN(C)CCn1nc(-c2ccccc2O)nc1-c1ccccc1 [NCGC00390082-01]	-4.7486 Log AC50 (M) and -4.8486 Log AC50 (M)	14.2	-4.7986 Log AC50 (M)	12.6	
O=C(NC1=CC(=O)c2ccccc2C1=O)c1ccccc1 [NCGC00357425-01]	-5.5986 Log AC50 (M) and -5.7986 Log AC50 (M) and -5.3486 Log AC50 (M)		-5.6486 Log AC50 (M) (2×) and -5.2986 Log AC50 (M)		
O=C(c1cccc(-c2cc(O)c3ncccc3c2)c1)N1CCOCC1 [NCGC00244534-01]	-5.0486 Log AC50 (M) and -5.0986 Log AC50 (M)	12.6	-5.0486 Log AC50 (M)	14.2	
CN(C)CCCCCNC(=O)c1cccc(-c2cc(O)c3ncccc3c2)c1 [NCGC00247747-01]	-4.8486 Log AC50 (M)	14.2		14.2	
CCCN1CCCc2cc(CN(CCCN3CCOCC3)C(=O)Nc3ccc(Cl)c(Cl)c3)ccc21 [NCGC00140597-02]	-5.3486 Log AC50 (M) and -5.2986 Log AC50 (M)	3.99	-5.3986 Log AC50 (M) and -5.0986 Log AC50 (M)	3.99	
COc1ccc(NCc2ccc(O)c3ncccc23)nc1 [NCGC00241022-01]	-4.8486 Log AC50 (M)	20	-4.9486 Log AC50 (M)	11.3	
CN1CCC(CCOC(c2cc3nccc(C(=O)O)c3[nH]2)c2ccccc2Cl)C1 (centres unmarked) [NCGC00481023-01]		12.6		8.94	
Cc1nn2c(c1-c1ccccc1-c1ccccc1)N(Cc1ccc(C(=O)O)s1)CCC2 [NCGC00420478-02]	-4.8986 Log AC50 (M) and -4.7986 Log AC50 (M)	17.8	-4.7486 Log AC50 (M)	14.2	
CCOC(=O)C1(Cc2ccc(Cl)cc2)CCN(C(=O)c2cc(C)oc2C)CC1 [NCGC00426139-02]	-5.0986 Log AC50 (M)	8.94	-4.8986 Log AC50 (M) and -4.7986 Log AC50 (M)	15.9	
COc1ccc(-c2c(-c3cc(N)ccn3)ncn2C)cc1 [NCGC00421914-01]	-4.7986 Log AC50 (M) and -4.9486 Log AC50 (M)	14.2	-4.9986 Log AC50 (M)	12.6	
Oc1ccc(CNc2ccccc2C(F)(F)F)c2cccnc12 [NCGC00184897-01]	-4.8986 Log AC50 (M) and -4.7986 Log AC50 (M)	12.6	-4.8486 Log AC50 (M) and -4.7486 Log AC50 (M)	15.9	
CCCN1C(CC(C)C)=N[S+](=O)([O-])c2cc(NC(=O)c3cccs3)ccc21 [NCGC00473217-02]	-7.0986 Log AC50 (M) and -6.8486 Log AC50 (M) and -6.8986 Log AC50 (M)		-6.3986 Log AC50 (M) and -6.0986 Log AC50 (M) and -6.3486 Log AC50 (M)		
Oc1ccc(CNc2cccc(F)c2F)c2cccnc12 [NCGC00183376-01]	-4.7486 Log AC50 (M)	17.8		17.8	-4.7486 Log AC50 (M)
CN1CCN(CCCNC(=O)c2cccc(-c3cc(O)c4ncccc4c3)c2)CC1 [NCGC00247740-01]	-4.7986 Log AC50 (M) and -4.7486 Log AC50 (M)	15.9	-4.7486 Log AC50 (M) and -4.7986 Log AC50 (M)	17.8	
